The results in this text go back to patent US9944603B2, “Compounds and methods for the treatment of cystic fibrosis” (Flatley Discovery Lab, LLC, priority 2013, dated 2018).

This assay concerns the target T1, human F508del CFTR (Homo sapiens, UniProt P13569, DEL508-508).
T1 construct: expressed in transfected cells
Put plainly: CFTR-YFP Assay, CFTR Corrector Protocol (YFP flux assay). Format: cell-based. The note with it: for Emax: normalized to the positive control, read-out: EMAX (% Efficacy, EMAX normalized to the positive control).

T1 sequence (P13569 with tags, fused parts or gaps DEL508-508): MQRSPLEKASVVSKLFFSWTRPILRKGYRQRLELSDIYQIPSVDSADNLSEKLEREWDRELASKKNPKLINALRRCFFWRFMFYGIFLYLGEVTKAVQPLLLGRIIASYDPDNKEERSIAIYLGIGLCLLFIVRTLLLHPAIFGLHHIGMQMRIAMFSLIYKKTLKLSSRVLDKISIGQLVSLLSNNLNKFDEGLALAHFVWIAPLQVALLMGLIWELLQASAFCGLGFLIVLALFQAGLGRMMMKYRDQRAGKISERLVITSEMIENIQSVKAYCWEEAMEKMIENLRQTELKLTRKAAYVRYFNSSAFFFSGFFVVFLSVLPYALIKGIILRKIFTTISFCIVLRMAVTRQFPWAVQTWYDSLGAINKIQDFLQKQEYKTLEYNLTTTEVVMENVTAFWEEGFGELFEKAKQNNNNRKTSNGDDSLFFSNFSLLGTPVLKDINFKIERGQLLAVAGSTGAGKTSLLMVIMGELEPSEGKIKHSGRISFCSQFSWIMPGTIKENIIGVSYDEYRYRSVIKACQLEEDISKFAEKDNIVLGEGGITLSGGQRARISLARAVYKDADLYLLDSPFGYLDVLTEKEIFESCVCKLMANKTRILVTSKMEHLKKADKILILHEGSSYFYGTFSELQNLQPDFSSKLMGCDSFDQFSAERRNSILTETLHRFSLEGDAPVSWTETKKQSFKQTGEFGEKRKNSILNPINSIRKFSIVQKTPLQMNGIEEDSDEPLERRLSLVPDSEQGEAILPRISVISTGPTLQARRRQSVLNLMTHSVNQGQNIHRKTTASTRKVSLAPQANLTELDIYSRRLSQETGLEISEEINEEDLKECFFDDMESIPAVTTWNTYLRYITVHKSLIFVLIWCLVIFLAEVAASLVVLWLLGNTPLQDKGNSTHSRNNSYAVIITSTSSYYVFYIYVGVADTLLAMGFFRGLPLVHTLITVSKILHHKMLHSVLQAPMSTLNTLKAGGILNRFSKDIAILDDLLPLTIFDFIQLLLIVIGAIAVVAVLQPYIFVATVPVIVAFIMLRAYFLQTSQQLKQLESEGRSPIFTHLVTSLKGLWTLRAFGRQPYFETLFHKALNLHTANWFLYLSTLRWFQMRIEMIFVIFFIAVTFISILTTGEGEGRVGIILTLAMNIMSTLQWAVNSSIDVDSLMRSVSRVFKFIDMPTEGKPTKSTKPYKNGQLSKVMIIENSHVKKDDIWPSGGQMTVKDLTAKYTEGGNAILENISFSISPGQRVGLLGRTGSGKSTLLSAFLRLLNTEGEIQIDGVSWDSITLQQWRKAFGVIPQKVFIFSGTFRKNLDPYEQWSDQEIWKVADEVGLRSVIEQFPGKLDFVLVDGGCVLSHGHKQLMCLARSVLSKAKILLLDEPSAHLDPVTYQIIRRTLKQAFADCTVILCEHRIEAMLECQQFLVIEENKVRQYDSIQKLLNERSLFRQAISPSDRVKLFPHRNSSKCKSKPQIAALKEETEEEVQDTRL

With `Cc1ccc2nc(-c3ccccc3)n(C3CCN(S(=O)(=O)c4ccc(C)c(Cl)c4)CC3)c2n1` [Example 63], the EC50 (usually the concentration that produces a half-maximal response) was less than 10 µM and the Emax (as a rule, the size of the effect at its maximum, as opposed to the concentration needed) lay within 30 to 80%.
Taken in the same sequence, the figures for `CCc1ccc(S(=O)(=O)N2CCC(N(C(=O)c3ccccc3Cl)c3ccccn3)CC2)cc1` [Example 196] were 10 to 20 µM and 30 to 80%.
In the case of `COc1ccc(S(=O)(=O)N2CCC(n3c(-c4ccccc4Cl)nc4cccnc43)CC2)cc1F` [Example 60], the EC50 is less than 10 µM and the Emax was 30 to 80%.
Regarding `COc1ccc(S(=O)(=O)N2CCC(n3c(-c4ccccc4C(F)(F)F)nc4cccnc43)CC2)cc1Cl` [Example 49], the EC50 is less than 10 µM and the Emax fell in the range of 30 to 80%.
On the same counts, the results for `CC1Cc2cc(S(=O)(=O)N3CCC(n4c(-c5ccncc5F)nc5cccnc54)CC3)ccc2N1` (centres unmarked) [Example 148] are less than 10 µM and 10 to 30%.
For the compound `Cc1cc(C)c(S(=O)(=O)N(c2cccc(C)n2)C2CCN(S(=O)(=O)c3ccc4c(c3)OC(F)(F)O4)CC2)c(C)c1` [Example 194], the EC50 was less than 10 µM and the Emax was in the range of 30 to 80%.
In the case of `O=S(=O)(c1ccc2c(c1)OC(F)(F)O2)N1CCC(n2c(-c3ccccc3Cl)nc3cccnc32)CC1` [Example 39], the EC50 was less than 10 µM and the Emax fell in the range of 30 to 80%.
In the case of `COc1ccc(S(=O)(=O)N2CCC(n3c(-c4ccc(F)cc4)nc4cccnc43)CC2)cc1Cl` [Example 77], the EC50 is less than 10 µM and the maximal effect (Emax) lay within 30 to 80%.
For the compound `CCc1ccc(S(=O)(=O)N2CCC(N(c3nccs3)S(=O)(=O)c3ccccc3Cl)CC2)cc1` [Example 231], the EC50 was less than 10 µM and the Emax is 30 to 80%.
In the case of `Cc1cccc(N(C2CCN(S(=O)(=O)c3ccc4nc(C)oc4c3)CC2)S(=O)(=O)c2ccccc2Cl)n1` [Example 220, 2-Chloro-N-(1-((2-methylbenzo[d]oxazol-6-yl)sulfonyl)piperidin-4-yl)-N-(6-methylpyridin-2-yl)benzenesulfonamide], the EC50 was less than 10 µM and the Emax was in the range of 30 to 80%.
As to `COc1ccc2c(c1)nc(-c1ccncc1Cl)n2C1CCN(S(=O)(=O)c2ccc3c(c2)OC(F)(F)O3)CC1` [Example 154], the EC50 was less than 10 µM and the Emax fell in the range of 30 to 80%.
Consider `O=S(=O)(c1ccc2c(c1)CCO2)N1CCC(n2c(-c3ccc(F)cc3F)nc3cccnc32)CC1` [Example 121], for which the EC50 was less than 10 µM and the Emax lay within 30 to 80%.
For `COc1ccc(S(=O)(=O)N2CCC(n3c(-c4ccccc4)nc4cccnc43)CC2)cc1C(F)(F)F` [Example 74], the EC50 is less than 10 µM and the Emax lay within 30 to 80%.
With `CCc1ccc(N(C(=O)c2ccccc2Cl)C2CCN(S(=O)(=O)c3ccc(CC)cc3)CC2)cc1` [Example 208], the EC50 was 10 to 20 µM and the Emax was in the range of 30 to 80%.
As to `COc1ccc2c(c1)nc(-c1ccc(F)cc1F)n2C1CCN(S(=O)(=O)c2ccc3nc(C)oc3c2)CC1` [Example 164], the EC50 was less than 10 µM and the Emax was more than 80%.
Take `CC(=O)N1c2ccc(S(=O)(=O)N3CCC(n4c(-c5ccc(F)cc5F)nc5cccnc54)CC3)cc2CC1C` (centres unmarked) [Example 146]: the EC50 is less than 10 µM and the Emax fell in the range of 10 to 30%.
`O=S(=O)(c1ccc2c(c1)OCO2)N1CCC(n2c(-c3cccnc3F)nc3cccnc32)CC1` [Example 123]: the EC50 is less than 10 µM and the Emax lay in the range of 10 to 30%.
`CC(=O)N1c2ccc(S(=O)(=O)N3CCC(n4c(-c5ccncn5)nc5cccnc54)CC3)cc2CC1C` (centres unmarked) [Example 152]: the EC50 is 10 to 20 µM and the Emax is 10 to 30%.
`Cc1ccc2nc(-c3ccc(F)cc3F)n(C3CCN(S(=O)(=O)c4ccc5c(c4)OC(F)(F)O5)CC3)c2n1` [Example 43]: the EC50 is less than 10 µM and the Emax fell in the range of 30 to 80%.
`COc1ccc(S(=O)(=O)N2CCC(N(C(=O)c3ccccc3Cl)c3ccccn3)CC2)cc1F` [Example 203]: the EC50 is less than 10 µM and the Emax turned out to be 1%.
For `CCc1ccc(S(=O)(=O)N2CCC(n3c(-c4ccncc4Cl)nc4cc(OC)ccc43)CC2)cc1` [Example 156], the EC50 was less than 10 µM and the maximal effect (Emax) was in the range of 30 to 80%.
On the same counts, the results for `CCc1ccc(S(=O)(=O)N2CCC(N(c3ccccn3)S(=O)(=O)c3c(C)cc(C)cc3C)CC2)cc1` [Example 183] are less than 10 µM and 30 to 80%.
Taken in the same sequence, the figures for `COc1ccc(S(=O)(=O)N2CCC(n3c(-c4ccncc4Cl)nc4cccnc43)CC2)cc1Cl` [Example 89] were 10 to 20 µM and more than 80%.
Regarding `O=S(=O)(c1ccc2c(c1)OCO2)N1CCC(n2c(-c3ccc(F)nc3F)nc3cccnc32)CC1` [Example 105], the EC50 is less than 10 µM and the Emax fell in the range of 30 to 80%.
Taken in the same sequence, the figures for `Cc1ccc(S(=O)(=O)N2CCC(n3c(-c4ccccc4Cl)nc4ccc(C)nc43)CC2)cc1` [Example 65] were less than 10 µM and 30 to 80%.
Regarding `Cc1nc2ccc(S(=O)(=O)N3CCC(n4c(-c5ccc(F)cc5F)nc5cccnc54)CC3)cc2o1` [Example 134], the EC50 was less than 10 µM and the Emax lay within 30 to 80%.
With `[2H]C1([2H])Oc2ccc(S(=O)(=O)N3CCC(n4c(-c5cccnc5Cl)nc5cccnc54)CC3)cc2O1` [Example 135], the EC50 lay in the range of 10 to 20 µM and the Emax fell in the range of 10 to 30%.
For `CCc1ccc(S(=O)(=O)N2CCC(N(c3cnc(OC)cn3)S(=O)(=O)c3ccccc3Cl)CC2)cc1` [Example 245], the EC50 was less than 10 µM and the Emax lay within 30 to 80%.
In the case of `CC(=O)Nc1ccc(S(=O)(=O)N2CCC(n3c(-c4ccccc4)nc4cccnc43)CC2)cc1Cl` [Example 70], the EC50 was less than 10 µM and the Emax lay in the range of 10 to 30%.
Take `COc1ccc(S(=O)(=O)N2CCC(n3c(-c4ccccc4C#N)nc4cccnc43)CC2)cc1Cl` [Example 50]: the EC50 was less than 10 µM and the Emax was in the range of 30 to 80%.
On the same counts, the results for `CCc1ccc(S(=O)(=O)N2CCC(N(c3cccc(C)n3)S(=O)(=O)c3ccccc3Cl)CC2)cc1` [Example 189] are less than 10 µM and 30 to 80%.
`O=S(=O)(c1ccc2c(c1)OC(F)(F)O2)N1CCC(n2c(-c3ccncc3F)nc3cccnc32)CC1` [Example 52]: the EC50 was less than 10 µM and the Emax was in the range of 30 to 80%.
For the compound `Cc1n[nH]c2ccc(S(=O)(=O)N3CCC(n4c(-c5ccncc5F)nc5cccnc54)CC3)cc12` [Example 141], the concentration giving a half-maximal response (EC50) is less than 10 µM and the Emax fell in the range of 10 to 30%.
Taken in the same sequence, the figures for `CCc1ccc(S(=O)(=O)N2CCC(N(C(=O)Nc3ccccc3)c3ccccn3)CC2)cc1` [Example 180] were 10 to 20 µM and 10 to 30%.
Turning to `COc1ccc2c(c1)nc(-c1ccncc1F)n2C1CCN(S(=O)(=O)c2ccc3nc(C)oc3c2)CC1` [Example 163], the EC50 is less than 10 µM and the Emax is more than 80%.
Take `CCc1ccc(S(=O)(=O)N2CCC(N(C(=O)c3ccccc3Cl)c3ccc(I)cc3)CC2)cc1` [Example 216]: the EC50 is less than 10 µM and the Emax was 10 to 30%.
On the same counts, the results for `COc1ccc(S(=O)(=O)N2CCC(N(c3cccc(C)n3)S(=O)(=O)c3ccccc3Cl)CC2)cc1Cl` [Example 190] are less than 10 µM and 10 to 30%.
With `O=S(=O)(c1ccc2c(c1)OC(F)(F)O2)N1CCC(n2c(-c3ccccc3)nc3ccccc32)CC1` [Example 82], the EC50 was less than 10 µM and the Emax fell in the range of 30 to 80%.
Taken in the same sequence, the figures for `Cc1ccnc2c1nc(-c1ccncc1Cl)n2C1CCN(S(=O)(=O)c2ccc3c(c2)OC(F)(F)O3)CC1` [Example 166] were less than 10 µM and 30 to 80%.
On the same counts, the results for `COc1ccc(S(=O)(=O)N2CCC(n3c(-c4ncccc4Cl)nc4cccnc43)CC2)cc1Cl` [Example 90] are 10 to 20 µM and 30 to 80%.
`CCc1ccc(S(=O)(=O)N2CCC(N(c3ccccn3)S(=O)(=O)c3cccc(C)c3)CC2)cc1` [Example 226]: the EC50 is less than 10 µM and the Emax lay within 10 to 30%.
As for `O=S(=O)(c1ccc2c(c1)OC(F)(F)O2)N1CCC(n2c(-c3ccncn3)nc3cccnc32)CC1` [Example 128], the EC50 is less than 10 µM and the Emax was 10 to 30%.
Consider `O=S(=O)(c1ccc2c(c1)OCO2)N1CCC(n2c(-c3ccncc3F)nc3cccnc32)CC1` [Example 107], for which the EC50 is less than 10 µM and the Emax lay in the range of 30 to 80%.
In the case of `O=S(=O)(c1ccc2c(c1)OC(F)(F)O2)N1CCC(n2c(-c3ccc(F)cc3F)nc3cccnc32)CC1` [Example 109], the EC50 is less than 10 µM and the Emax is 30 to 80%.
Regarding `O=S(=O)(c1ccc2c(c1)OC(F)(F)O2)N1CCC(n2c(-c3ccncc3Cl)nc3cnccc32)CC1` [Example 137], the EC50 was 10 to 20 µM and the Emax lay in the range of 10 to 30%.
With `Cc1noc2ccc(S(=O)(=O)N3CCC(n4c(-c5ccc(F)cc5F)nc5cccnc54)CC3)cc12` [Example 140], the EC50 was more than 20 µM and the Emax fell in the range of 10 to 30%.
Taken in the same sequence, the figures for `CCc1ccc(S(=O)(=O)N2CCC(N(C(=O)Nc3ccccc3Cl)c3ccccn3)CC2)cc1` [Example 177] were less than 10 µM and 10 to 30%.
With `CCc1ccc(S(=O)(=O)N2CCC(n3c(-c4ccncc4F)nc4cc(OC)ccc43)CC2)cc1` [Example 151], the EC50 is less than 10 µM and the Emax is 30 to 80%.
Consider `Cc1ccc2nc(-c3ccncc3F)n(C3CCN(S(=O)(=O)c4ccc5c(c4)OC(F)(F)O5)CC3)c2n1` [Example 112], for which the EC50 is less than 10 µM and the Emax is more than 80%.
As to `O=S(=O)(N1CCOCC1)N1CCC(n2c(-c3ccccc3)nc3cccnc32)CC1` [Example 67], the EC50 is more than 20 µM and the Emax fell in the range of 10 to 30%.
Taken in the same sequence, the figures for `O=S(=O)(c1ccc2c(c1)OC(F)(F)O2)N1CCC(n2c(-c3cccnc3F)nc3cccnc32)CC1` [Example 119] were less than 10 µM and more than 80%.
Consider `CCc1ccc(S(=O)(=O)N2CCC(N(C(=S)c3ccccc3)c3ccccn3)CC2)cc1` [Example 195], for which the EC50 was less than 10 µM and the Emax was 30 to 80%.
